Patent publication US7074789B2, “Kinase inhibitors” (Amgen Inc., priority 1999, dated 2006)

How the values were obtained:
Format in all cases: biochemical
Itk = molecular target: T1, Itk (Homo sapiens, UniProt Q08881); test: Kinase inhibition assay (33P transfer), Itk; details: Table 3, class symbols; read-out: Itk-1
T1 construct: Kinases are expressed as either kinase domains or full length constructs; made in house
T1 sequence (Q08881 1-620): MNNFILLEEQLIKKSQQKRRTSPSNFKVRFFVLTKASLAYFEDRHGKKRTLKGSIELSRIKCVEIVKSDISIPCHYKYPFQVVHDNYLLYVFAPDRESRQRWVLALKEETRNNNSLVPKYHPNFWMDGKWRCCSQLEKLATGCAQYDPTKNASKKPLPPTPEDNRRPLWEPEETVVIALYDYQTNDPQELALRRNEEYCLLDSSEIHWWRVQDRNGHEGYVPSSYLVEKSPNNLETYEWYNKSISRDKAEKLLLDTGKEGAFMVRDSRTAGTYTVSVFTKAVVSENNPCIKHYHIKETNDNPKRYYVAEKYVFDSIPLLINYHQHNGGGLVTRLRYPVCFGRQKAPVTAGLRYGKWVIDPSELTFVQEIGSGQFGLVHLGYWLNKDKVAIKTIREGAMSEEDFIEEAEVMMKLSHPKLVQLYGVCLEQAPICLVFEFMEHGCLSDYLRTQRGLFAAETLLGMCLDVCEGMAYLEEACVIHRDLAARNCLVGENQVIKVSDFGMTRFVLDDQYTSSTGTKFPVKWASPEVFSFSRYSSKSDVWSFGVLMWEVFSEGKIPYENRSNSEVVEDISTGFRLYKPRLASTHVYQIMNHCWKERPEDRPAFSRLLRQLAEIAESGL
Outline: (§1)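 Using immobilised substrate copolymers (poly(Glu,Tyr) 4:1; poly(Arg,Ser) 3:1) and [33P]ATP, purified fusion kinases were allowed to react; plates were then rinsed in 0.5% phosphoric acid and counted in a scintillation detector. Half-maximal inhibition of label transfer defines IC50.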

Kdr = molecular target: T2, Kdr (Homo sapiens, UniProt P35968); test: Kinase inhibition assay (33P transfer), Kdr; details: Table 3, class symbols; read-out: KDR-1
T2 construct: Kinases are expressed as either kinase domains or full length constructs; made in house
Outline: (§2)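 Enzyme activity is taken as the amount of 33PO4 moved from ATP onto poly(Glu, Tyr) 4:1 or poly(Arg, Ser) 3:1 fixed to the plate surface. Unbound label is removed with 0.5% phosphoric acid before scintillation counting.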

AKT = molecular target: T3, AKT (Homo sapiens, UniProt Q9Y243); test: Kinase inhibition assay (33P transfer), AKT; details: Table 2, class symbols A-E; read-out: AKT3-1
T3 construct: Kinases are expressed as either kinase domains or full length constructs; made in house
Outline: as §2

PDGFRB = molecular target: T4, PDGFRB (Homo sapiens, UniProt P09619); test: Kinase inhibition assay (33P transfer), PDGFRB; details: read-out: PDGFRB-1
T4 construct: Kinases are expressed as either kinase domains or full length constructs; made in house

ErbB2 = molecular target: T5, ErbB2 (Homo sapiens, UniProt P04626); test: Kinase inhibition assay (33P transfer), ErbB2; details: read-out: ErbB2-2
T5 construct: Kinases are expressed as either kinase domains or full length constructs; made in house
Outline: as §1

IGFR-1 = molecular target: T6, IGFR-1 (Homo sapiens, UniProt P08069); test: Kinase inhibition assay (33P transfer), IGFR-1; details: Table 2, class symbols A-E
T6 construct: Kinases are expressed as either kinase domains or full length constructs; made in house

Lck = molecular target: T7, Lck (Homo sapiens, UniProt P06239); test: Kinase inhibition assay (33P transfer), Lck; details: Table 3, class symbols; read-out: Lck-1
T7 construct: Kinases are expressed as either kinase domains or full length constructs; made in house
Outline: as §2

EGFR = molecular target: T8, EGFR (Homo sapiens, UniProt P00533); test: Kinase inhibition assay (33P transfer), EGFR; details: Table 2, class symbols A-E; read-out: EGFR-1
T8 construct: Kinases are expressed as either kinase domains or full length constructs; made in house
Outline: as §1

c-Met = molecular target: T9, c-Met (Homo sapiens, UniProt P08581); test: Kinase inhibition assay (33P transfer), c-Met; details: Table 2, class symbols A-E; read-out: Met-1
T9 construct: Kinases are expressed as either kinase domains or full length constructs; made in house
Outline: as §1

Zap-70 = molecular target: T10, Zap-70 (Homo sapiens, UniProt P43403); test: Kinase inhibition assay (33P transfer), Zap-70; details: Table 3, class symbols; read-out: Zap-1
T10 construct: Kinases are expressed as either kinase domains or full length constructs; made in house
T10 sequence (P43403 1-619): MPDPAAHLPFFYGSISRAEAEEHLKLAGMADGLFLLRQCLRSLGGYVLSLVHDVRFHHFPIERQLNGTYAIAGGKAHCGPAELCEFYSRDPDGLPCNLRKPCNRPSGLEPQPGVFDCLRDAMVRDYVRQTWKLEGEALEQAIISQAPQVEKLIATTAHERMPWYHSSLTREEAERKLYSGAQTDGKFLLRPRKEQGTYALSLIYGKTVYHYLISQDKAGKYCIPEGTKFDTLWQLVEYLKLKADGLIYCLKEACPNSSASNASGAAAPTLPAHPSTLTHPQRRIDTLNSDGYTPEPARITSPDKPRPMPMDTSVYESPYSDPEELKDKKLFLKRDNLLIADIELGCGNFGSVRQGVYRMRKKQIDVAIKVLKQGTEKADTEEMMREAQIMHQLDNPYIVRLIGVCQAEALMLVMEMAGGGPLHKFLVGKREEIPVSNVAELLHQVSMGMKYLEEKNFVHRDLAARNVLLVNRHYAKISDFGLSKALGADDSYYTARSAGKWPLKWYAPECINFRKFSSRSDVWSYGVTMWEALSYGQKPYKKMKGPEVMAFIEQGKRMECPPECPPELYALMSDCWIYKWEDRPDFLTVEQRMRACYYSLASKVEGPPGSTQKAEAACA
Outline: as §2

T2 sequence (P35968 20-1356, species assumed): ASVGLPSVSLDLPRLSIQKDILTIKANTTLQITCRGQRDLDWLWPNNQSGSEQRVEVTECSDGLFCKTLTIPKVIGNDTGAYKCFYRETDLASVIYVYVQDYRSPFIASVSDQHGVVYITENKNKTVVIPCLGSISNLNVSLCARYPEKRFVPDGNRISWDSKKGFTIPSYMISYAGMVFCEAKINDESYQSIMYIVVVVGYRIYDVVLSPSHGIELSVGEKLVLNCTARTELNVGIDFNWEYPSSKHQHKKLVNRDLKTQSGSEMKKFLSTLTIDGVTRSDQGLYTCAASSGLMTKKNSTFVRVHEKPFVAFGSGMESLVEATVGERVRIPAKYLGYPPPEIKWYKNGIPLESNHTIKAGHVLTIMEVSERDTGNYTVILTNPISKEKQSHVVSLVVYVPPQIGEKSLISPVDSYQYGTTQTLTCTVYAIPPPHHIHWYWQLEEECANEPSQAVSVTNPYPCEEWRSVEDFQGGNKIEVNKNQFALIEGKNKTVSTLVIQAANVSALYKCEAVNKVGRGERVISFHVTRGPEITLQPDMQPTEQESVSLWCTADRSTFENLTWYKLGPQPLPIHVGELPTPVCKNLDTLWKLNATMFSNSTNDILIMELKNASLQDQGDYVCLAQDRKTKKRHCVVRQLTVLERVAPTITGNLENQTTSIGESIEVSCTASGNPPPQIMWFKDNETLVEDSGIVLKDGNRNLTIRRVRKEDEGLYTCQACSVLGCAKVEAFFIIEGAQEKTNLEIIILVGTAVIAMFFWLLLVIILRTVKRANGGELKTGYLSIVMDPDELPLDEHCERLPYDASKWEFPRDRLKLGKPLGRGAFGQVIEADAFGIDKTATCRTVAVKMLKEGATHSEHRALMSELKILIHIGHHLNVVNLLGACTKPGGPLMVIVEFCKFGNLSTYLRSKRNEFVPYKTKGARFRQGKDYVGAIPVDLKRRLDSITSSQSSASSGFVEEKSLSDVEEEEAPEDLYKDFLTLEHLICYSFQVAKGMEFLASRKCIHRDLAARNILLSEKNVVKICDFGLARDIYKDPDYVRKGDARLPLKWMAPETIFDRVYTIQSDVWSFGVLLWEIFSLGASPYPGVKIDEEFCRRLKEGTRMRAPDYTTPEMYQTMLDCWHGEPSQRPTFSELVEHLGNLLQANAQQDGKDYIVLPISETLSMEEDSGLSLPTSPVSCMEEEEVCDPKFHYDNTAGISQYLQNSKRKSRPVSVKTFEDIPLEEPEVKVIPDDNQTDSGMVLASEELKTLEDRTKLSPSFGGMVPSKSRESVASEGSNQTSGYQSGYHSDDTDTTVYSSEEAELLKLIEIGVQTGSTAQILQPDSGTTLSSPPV
T7 sequence (P06239 whole entry, species assumed, the tested form may be a part): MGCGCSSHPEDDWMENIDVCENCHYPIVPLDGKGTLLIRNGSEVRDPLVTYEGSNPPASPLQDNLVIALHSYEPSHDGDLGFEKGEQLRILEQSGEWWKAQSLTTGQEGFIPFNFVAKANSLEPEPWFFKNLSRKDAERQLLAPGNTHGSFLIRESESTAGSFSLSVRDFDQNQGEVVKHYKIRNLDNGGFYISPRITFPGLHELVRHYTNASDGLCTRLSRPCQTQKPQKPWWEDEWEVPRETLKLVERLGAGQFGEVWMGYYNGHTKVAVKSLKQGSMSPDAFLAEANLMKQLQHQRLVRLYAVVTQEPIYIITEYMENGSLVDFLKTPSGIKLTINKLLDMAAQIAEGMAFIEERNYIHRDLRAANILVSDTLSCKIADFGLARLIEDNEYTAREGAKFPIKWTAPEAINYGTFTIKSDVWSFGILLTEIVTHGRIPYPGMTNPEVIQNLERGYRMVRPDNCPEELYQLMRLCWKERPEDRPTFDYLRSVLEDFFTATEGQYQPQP
T9 sequence (P08581 25-1390): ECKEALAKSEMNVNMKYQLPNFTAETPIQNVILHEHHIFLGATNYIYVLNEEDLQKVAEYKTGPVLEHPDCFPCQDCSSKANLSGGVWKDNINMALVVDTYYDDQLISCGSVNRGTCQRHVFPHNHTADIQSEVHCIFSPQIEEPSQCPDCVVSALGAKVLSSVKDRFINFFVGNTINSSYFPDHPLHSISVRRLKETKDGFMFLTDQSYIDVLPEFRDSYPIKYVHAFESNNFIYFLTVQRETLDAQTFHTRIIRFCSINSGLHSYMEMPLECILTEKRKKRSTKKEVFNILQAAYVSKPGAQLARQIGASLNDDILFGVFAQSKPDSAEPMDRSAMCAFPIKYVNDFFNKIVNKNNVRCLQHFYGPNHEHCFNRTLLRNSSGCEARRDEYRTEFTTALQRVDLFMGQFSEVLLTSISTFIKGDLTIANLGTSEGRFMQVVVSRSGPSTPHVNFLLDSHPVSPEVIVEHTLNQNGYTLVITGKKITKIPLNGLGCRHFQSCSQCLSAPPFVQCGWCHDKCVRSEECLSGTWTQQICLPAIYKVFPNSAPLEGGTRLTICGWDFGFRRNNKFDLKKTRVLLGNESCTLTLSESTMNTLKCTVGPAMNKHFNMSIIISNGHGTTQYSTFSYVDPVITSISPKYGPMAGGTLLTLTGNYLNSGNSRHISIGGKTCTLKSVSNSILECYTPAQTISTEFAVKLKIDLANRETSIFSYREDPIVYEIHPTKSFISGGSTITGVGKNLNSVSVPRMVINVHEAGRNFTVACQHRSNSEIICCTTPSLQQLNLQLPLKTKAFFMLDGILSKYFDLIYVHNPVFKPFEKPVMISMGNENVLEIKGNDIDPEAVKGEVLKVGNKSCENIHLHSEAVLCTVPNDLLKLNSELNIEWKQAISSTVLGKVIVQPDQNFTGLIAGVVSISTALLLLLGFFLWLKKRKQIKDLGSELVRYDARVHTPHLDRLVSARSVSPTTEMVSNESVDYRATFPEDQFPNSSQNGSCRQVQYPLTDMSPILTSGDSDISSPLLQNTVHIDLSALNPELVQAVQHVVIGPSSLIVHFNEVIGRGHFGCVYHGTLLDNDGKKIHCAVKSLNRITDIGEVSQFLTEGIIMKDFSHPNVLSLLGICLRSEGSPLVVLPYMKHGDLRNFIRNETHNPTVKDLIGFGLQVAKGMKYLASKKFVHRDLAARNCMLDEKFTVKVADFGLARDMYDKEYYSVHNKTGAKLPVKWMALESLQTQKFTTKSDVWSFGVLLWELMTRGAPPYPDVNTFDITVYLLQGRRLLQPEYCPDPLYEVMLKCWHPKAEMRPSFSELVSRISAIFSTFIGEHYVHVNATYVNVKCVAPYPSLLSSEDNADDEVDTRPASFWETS
T3 sequence (Q9Y243 whole entry, the tested form may be a part): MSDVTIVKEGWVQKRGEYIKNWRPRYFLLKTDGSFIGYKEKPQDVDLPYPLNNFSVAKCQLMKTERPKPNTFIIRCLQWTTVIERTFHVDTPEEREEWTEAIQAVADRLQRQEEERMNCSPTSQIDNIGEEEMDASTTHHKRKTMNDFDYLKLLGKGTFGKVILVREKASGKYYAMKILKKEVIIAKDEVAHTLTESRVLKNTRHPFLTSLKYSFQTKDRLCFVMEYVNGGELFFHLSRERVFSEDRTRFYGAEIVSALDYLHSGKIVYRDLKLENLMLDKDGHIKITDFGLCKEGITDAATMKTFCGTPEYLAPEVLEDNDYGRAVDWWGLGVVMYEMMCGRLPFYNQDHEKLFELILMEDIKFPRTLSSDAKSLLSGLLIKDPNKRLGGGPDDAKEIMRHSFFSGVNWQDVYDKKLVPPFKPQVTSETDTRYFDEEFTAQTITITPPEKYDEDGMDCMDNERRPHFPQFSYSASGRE
T4 sequence (P09619 33-1106, species assumed): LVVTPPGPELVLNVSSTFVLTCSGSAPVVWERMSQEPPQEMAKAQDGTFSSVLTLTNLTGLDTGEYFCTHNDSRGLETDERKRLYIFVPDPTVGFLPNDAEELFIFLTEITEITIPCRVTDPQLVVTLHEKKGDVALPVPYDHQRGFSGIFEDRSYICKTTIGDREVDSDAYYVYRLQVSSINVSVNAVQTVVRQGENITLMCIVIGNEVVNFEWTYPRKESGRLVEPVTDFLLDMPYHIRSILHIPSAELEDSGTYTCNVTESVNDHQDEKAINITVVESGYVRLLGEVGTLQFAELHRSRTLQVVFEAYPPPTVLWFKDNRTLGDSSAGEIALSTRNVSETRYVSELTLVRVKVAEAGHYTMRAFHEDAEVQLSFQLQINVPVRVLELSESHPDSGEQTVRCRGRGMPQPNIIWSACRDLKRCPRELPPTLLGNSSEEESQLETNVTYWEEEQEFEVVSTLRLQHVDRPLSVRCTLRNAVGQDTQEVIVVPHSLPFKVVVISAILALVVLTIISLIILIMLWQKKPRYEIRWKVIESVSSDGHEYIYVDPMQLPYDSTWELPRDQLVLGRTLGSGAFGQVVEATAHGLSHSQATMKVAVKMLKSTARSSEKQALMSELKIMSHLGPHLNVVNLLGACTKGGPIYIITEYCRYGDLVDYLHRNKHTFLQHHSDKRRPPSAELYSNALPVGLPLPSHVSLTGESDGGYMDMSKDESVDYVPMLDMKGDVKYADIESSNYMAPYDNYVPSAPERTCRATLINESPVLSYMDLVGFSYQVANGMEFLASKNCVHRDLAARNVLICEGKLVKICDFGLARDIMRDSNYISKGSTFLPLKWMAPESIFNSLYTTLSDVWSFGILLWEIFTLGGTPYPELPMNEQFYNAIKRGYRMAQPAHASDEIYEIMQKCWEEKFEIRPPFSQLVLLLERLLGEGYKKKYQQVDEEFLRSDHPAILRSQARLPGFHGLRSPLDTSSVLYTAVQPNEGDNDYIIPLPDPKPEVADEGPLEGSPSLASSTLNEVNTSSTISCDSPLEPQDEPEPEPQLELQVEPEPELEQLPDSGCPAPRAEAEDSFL

IC50 (Itk) [µM] | IC50 (Kdr) [µM] | IC50 (AKT) [µM] | IC50 (PDGFRB) [µM] | IC50 (ErbB2) [µM] | IC50 (IGFR-1) [µM] | IC50 (Lck) [µM] | IC50 (EGFR) [µM] | IC50 (c-Met) [µM] | IC50 (Zap-70) [µM] | SMILES
1.03 to 6.19 | 6.19 to 9.03 | > 11.6 | 1.03 to 6.19 | 1.03 to 6.19 | < 1.03 | < 1.03 | 1.03 to 6.19 | 1.03 to 6.19 | > 11.6 | COc1ccc(Nc2ncnc(Nc3cc(-c4ccc(C)cc4)n[nH]3)n2)c(C)c1 [Compound 1126]
5.51 to 8.04 | < 0.918 | > 10.3 | < 0.918 | > 10.3 | > 10.3 | 5.51 to 8.04 | 0.918 to 5.51 | 5.51 to 8.04 | > 10.3 | c1ccc(CNc2ncccc2-c2ncnc(Nc3cccc(Cn4ccnn4)c3)n2)cc1 [Compound 1101]
> 13.3 | 1.19 to 7.11 | > 13.3 | 7.11 to 10.4 | 1.19 to 7.11 | 7.11 to 10.4 | 1.19 to 7.11 | < 1.19 | 1.19 to 7.11 | > 13.3 | COc1ccc(Nc2ncnc(N(C)c3ccccc3)n2)cc1OC [Compound 797]
> 9.34 | > 9.34 | > 9.34 | > 9.34 | > 9.34 | > 9.34 | > 9.34 | > 9.34 | > 9.34 | > 9.34 | COc1cccc(CCNc2ncnc(Nc3ccc4c(cnn4Cc4ccccc4)c3)n2)c1OC [Compound 873]
> 8.64 | 6.72 to 8.64 | > 8.64 | 4.61 to 6.72 | 0.768 to 4.61 | > 8.64 | 0.768 to 4.61 | 0.768 to 4.61 | > 8.64 | > 8.64 | COc1cc(Nc2ncnc(Nc3cc(Cl)c(NC(=O)c4ccccc4)cc3C)n2)cc(OC)c1OC [Compound 633]
5.08 to 7.41 | > 9.52 | > 9.52 | > 9.52 | 0.847 to 5.08 | 0.847 to 5.08 | > 9.52 | 7.41 to 9.52 | < 0.847 | > 9.52 | COC(=O)c1ccc(-c2cc(Nc3ncnc(Nc4ccc(N5CCOCC5)cc4)n3)[nH]n2)cc1 [Compound 807]
> 11.3 | < 1 | > 11.3 | < 1 | 6.02 to 8.78 | > 11.3 | > 11.3 | 1 to 6.02 | 1 to 6.02 | 6.02 to 8.78 | O=C(O)Cc1cccc(Nc2ncnc(-c3cccnc3Nc3ccccc3)n2)c1 [Compound 1094]
0.951 to 5.71 | < 0.951 | 0.951 to 5.71 | < 0.951 | 0.951 to 5.71 | 0.951 to 5.71 | > 10.7 | 0.951 to 5.71 | 0.951 to 5.71 | 5.71 to 8.33 | O=C(O)CNC(=O)c1ccc(Nc2ncnc(Nc3cc(-c4ccco4)[nH]n3)n2)cc1 [Compound 884]
6.05 to 8.83 | 1.01 to 6.05 | 1.01 to 6.05 | 1.01 to 6.05 | 1.01 to 6.05 | < 1.01 | 1.01 to 6.05 | 1.01 to 6.05 | < 1.01 | > 11.4 | c1ccc(-c2cc(Nc3ncnc(Nc4cccc(-c5cnco5)c4)n3)[nH]n2)cc1 [Compound 1010]
> 9.1 | > 9.1 | > 9.1 | 4.85 to 7.08 | > 9.1 | 4.85 to 7.08 | > 9.1 | 4.85 to 7.08 | < 0.809 | > 9.1 | CNS(=O)(=O)Cc1ccc(Nc2ncnc(Nc3cc(-c4ccc(C(=O)OC)cc4)n[nH]3)n2)cc1 [Compound 883]
7.11 to 9.14 | < 0.812 | > 9.14 | < 0.812 | 4.87 to 7.11 | > 9.14 | 4.87 to 7.11 | 0.812 to 4.87 | > 9.14 | > 9.14 | Fc1cccc(CNc2nc3ccccc3n2-c2ncnc(Nc3cccc(Cn4ccnn4)c3)n2)c1 [Compound 964]
> 10.1 | > 10.1 | > 10.1 | 0.898 to 5.39 | 0.898 to 5.39 | > 10.1 | > 10.1 | > 10.1 | > 10.1 | > 10.1 | COC(=O)c1ccc(-c2cc(Nc3ncnc(NCCc4ccc(OC)cc4)n3)[nH]n2)cc1 [Compound 817]
> 9.84 | 0.874 to 5.25 | > 9.84 | 0.874 to 5.25 | > 9.84 | > 9.84 | > 9.84 | > 9.84 | > 9.84 | > 9.84 | Fc1ccc(CNc2ncccc2-c2ncnc(Nc3ccc(N4CCOCC4)cc3)n2)cc1 [Compound 1106]
4.45 to 6.49 | < 0.741 | > 8.34 | < 0.741 | > 8.34 | 6.49 to 8.34 | 0.741 to 4.45 | 0.741 to 4.45 | 0.741 to 4.45 | > 8.34 | COc1cc(Nc2ncnc(-c3cccnc3Nc3ccccc3)n2)ccc1NC(=O)CCCN1CCNCC1 [Compound 1093]
0.871 to 5.22 | 0.871 to 5.22 | 5.22 to 7.62 | 0.871 to 5.22 | 0.871 to 5.22 | < 0.871 | < 0.871 | 0.871 to 5.22 | < 0.871 | 0.871 to 5.22 | COC(=O)c1ccc(-c2cc(Nc3ncnc(Nc4cccc(CCC(=O)O)c4)n3)[nH]n2)cc1 [Compound 992]
> 10.5 | > 10.5 | 0.931 to 5.59 | > 10.5 | 0.931 to 5.59 | 5.59 to 8.15 | > 10.5 | < 0.931 | 0.931 to 5.59 | > 10.5 | Fc1ccc(Nc2ncnc(Nc3ccc4c(cnn4Cc4ccccc4)c3)n2)cc1F [Compound 902]
> 9.92 | < 0.882 | > 9.92 | < 0.882 | > 9.92 | > 9.92 | > 9.92 | 5.29 to 7.72 | > 9.92 | 7.72 to 9.92 | Fc1ccc(CNc2ncccc2-c2ncnc(Nc3cccc(Cn4ccnn4)c3)n2)cc1 [Compound 1102]
6.99 to 10.2 | 10.2 to 13.1 | > 13.1 | 1.16 to 6.99 | 6.99 to 10.2 | > 13.1 | < 1.16 | < 1.16 | 1.16 to 6.99 | > 13.1 | COc1ccc(Nc2ncnc(N(C)C3CCCCC3)n2)cc1OC [Compound 796]
> 12 | < 1.07 | > 12 | < 1.07 | 6.42 to 9.36 | 9.36 to 12 | > 12 | 1.07 to 6.42 | 9.36 to 12 | > 12 | O=C(O)Cc1cccc(Nc2ncnc(Nc3ccc(Cl)cc3F)n2)c1 [Compound 968]
